The values below are quoted from earlier work in patent US20140256766A1, “TRANSMUCOSAL DRUG DELIVERY SYSTEM” (priority 2013, published 2014).

For series [1] the following is noted: pH 6.8.
The conditions of series [2]: smoking a cigarette (WO 03/055486 A1).

For `CN1CCCC1c1cccnc1` (centres unmarked) [nicotine], the “nicotine in the free base form” value in series [1] is given as “about 10%”. Moreover, the “time to peak plasma nicotine levels” value in series [2] is “about 10 minutes”.
